# Assay results published in patent US20260217701A1, “SELECTIVE BET INHIBITORS AND USES THEREOF” (Tay Therapeutics Limited, priority 2022, published 2026).
# Where “and” joins values, the source holds several entries; their conditions need not be identical. Equal entries are not always repeated.
# Tested on: imiquimod-induced psoriasis
# Assay: Imiquimod-induced psoriasis model
# Assay type: in vivo, mice
# Design: Spleen Weight / Spleen Weight Ratio: unit not given here
# Settings: for Mean scores of the presence of erythema on the skin of animals at the area of induction of psoriasis / Mean scores of the presence of induration on the skin of animals at the area of induction of psoriasis / Mean scores of the presence of peeling on the skin of animals at the area of induction of psoriasis: mean ± SEM
# Method in brief: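 Mice given topical imiquimod (5% cream) daily on depilated backs Days 1–14; Compound A in 5% DMSO/40% PEG-400/55% saline from Day 8, clobetasol topical as reference. Daily PASI (erythema, induration, peeling, each 0–4, summed) Days 8–15; spleen weight, open-field behaviour, serum IL-1B, IL-6, IL-17, TNF-α, IL-22, IL-23 at Day 15.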
# [1] = IMI-psoriasis model, mice, 1 mg/kg, individual animals
# [2] = IMI-psoriasis model, mice, 3 mg/kg, individual animals
# [3] = IMI-psoriasis model, mice, 10 mg/kg, individual animals
# [4] = IMI + 1 mg/kg, D8 (before start of treatment)
# [5] = IMI + 3 mg/kg, D8 (before start of treatment)
compound,measurement,setting,value
"Cn1cc(-c2ccccc2)c(-c2cn(C)c(=O)c3[nH]c(-c4cnn(C(F)(F)F)c4)cc23)cc1=O [Compound A, 6-methyl-4-(1-methyl-2-oxo-5-phenyl-1,2-dihydropyridin-4-yl)-2-(1-(trifluoromethyl)-1H-pyrazol-4-yl)-1,6-dihydro-7H-pyrrolo[2,3-c]pyridin-7-one]",Use Enrichment Mean D8-D15,"IMI-psoriasis model, mean D8-D15, 10 mg/kg, per cage (two animals)",2.86 and 3.86 and 3.50 and 3.14
same,Spleen Weight,[1],219.42 and 202.00 and 212.50 and 233.20 and 220.14 and 227.26 and 202.76 and 213.15
same,Spleen Weight Ratio,[1],1394.03 and 1137.39 and 1273.22 and 1367.74 and 1289.63 and 1310.61 and 1176.78 and 1298.90
same,Spleen Weight,[2],199.90 and 205.09 and 178.46 and 185.94 and 214.46 and 180.80 and 187.63 and 151.76
same,Spleen Weight Ratio,[2],1084.06 and 1245.23 and 967.79 and 1175.35 and 1265.25 and 1069.19 and 1163.24 and 921.43
same,Spleen Weight,[3],156.01 and 178.03 and 139.03 and 157.80 and 191.54 and 195.58 and 151.42 and 172.86
same,Spleen Weight Ratio,[3],939.82 and 1083.57 and 757.66 and 813.82 and 1075.46 and 1071.08 and 902.92 and 1083.08
same,"cytokine levels (IL-17, IL-22, IL-1β, IL-6, TNF-α, IL-23) relative to vehicle",all tested doses,marked reduction of all cytokines assayed
same,Spleen Weight Ratio,"day 15, 1, 3, 10 mg/kg",dose-dependent decrease
same,Mean scores of the presence of erythema on the skin of animals at the area of induction of psoriasis,[4],2.0 ± 0.0
same,Mean scores of the presence of induration on the skin of animals at the area of induction of psoriasis,[4],2.6 ± 0.2
same,Mean scores of the presence of peeling on the skin of animals at the area of induction of psoriasis,[4],2.6 ± 0.2
same,Mean scores of the presence of erythema on the skin of animals at the area of induction of psoriasis,"IMI + 1 mg/kg, D9",2.0 ± 0.3
same,Mean scores of the presence of induration on the skin of animals at the area of induction of psoriasis,"IMI + 1 mg/kg, D9",2.4 ± 0.2
same,Mean scores of the presence of peeling on the skin of animals at the area of induction of psoriasis,"IMI + 1 mg/kg, D9",2.6 ± 0.2
same,Mean scores of the presence of erythema on the skin of animals at the area of induction of psoriasis,"IMI + 1 mg/kg, D10",1.75 ± 0.2
same,Mean scores of the presence of induration on the skin of animals at the area of induction of psoriasis,"IMI + 1 mg/kg, D10",2.1 ± 0.2
same,Mean scores of the presence of peeling on the skin of animals at the area of induction of psoriasis,"IMI + 1 mg/kg, D10",2.1 ± 0.1
same,Mean scores of the presence of erythema on the skin of animals at the area of induction of psoriasis,"IMI + 1 mg/kg, D11",1.9 ± 0.1
same,Mean scores of the presence of induration on the skin of animals at the area of induction of psoriasis,"IMI + 1 mg/kg, D11",2.0 ± 0.3
same,Mean scores of the presence of peeling on the skin of animals at the area of induction of psoriasis,"IMI + 1 mg/kg, D11",1.9 ± 0.2
same,Mean scores of the presence of erythema on the skin of animals at the area of induction of psoriasis,"IMI + 1 mg/kg, D12",1.5 ± 0.2
same,Mean scores of the presence of induration on the skin of animals at the area of induction of psoriasis,"IMI + 1 mg/kg, D12",1.6 ± 0.2
same,Mean scores of the presence of peeling on the skin of animals at the area of induction of psoriasis,"IMI + 1 mg/kg, D12",1.3 ± 0.2
same,Mean scores of the presence of erythema on the skin of animals at the area of induction of psoriasis,"IMI + 1 mg/kg, D13",0.5 ± 0.2
same,Mean scores of the presence of induration on the skin of animals at the area of induction of psoriasis,"IMI + 1 mg/kg, D13",1.5 ± 0.2
same,Mean scores of the presence of peeling on the skin of animals at the area of induction of psoriasis,"IMI + 1 mg/kg, D13",1.1 ± 0.1
same,Mean scores of the presence of erythema on the skin of animals at the area of induction of psoriasis,"IMI + 1 mg/kg, D14",0.3 ± 0.2
same,Mean scores of the presence of induration on the skin of animals at the area of induction of psoriasis,"IMI + 1 mg/kg, D14",0.9 ± 0.2
same,Mean scores of the presence of peeling on the skin of animals at the area of induction of psoriasis,"IMI + 1 mg/kg, D14",1.0 ± 0.0
same,Mean scores of the presence of erythema on the skin of animals at the area of induction of psoriasis,"IMI + 1 mg/kg, D15",0.0 ± 0.0
same,Mean scores of the presence of induration on the skin of animals at the area of induction of psoriasis,"IMI + 1 mg/kg, D15",0.5 ± 0.2
same,Mean scores of the presence of peeling on the skin of animals at the area of induction of psoriasis,"IMI + 1 mg/kg, D15",0.7 ± 0.2
same,Mean scores of the presence of erythema on the skin of animals at the area of induction of psoriasis,[5],1.9 ± 0.1
same,Mean scores of the presence of induration on the skin of animals at the area of induction of psoriasis,[5],2.5 ± 0.2
same,Mean scores of the presence of peeling on the skin of animals at the area of induction of psoriasis,[5],2.3 ± 0.2
same,Mean scores of the presence of erythema on the skin of animals at the area of induction of psoriasis,"IMI + 3 mg/kg, D9",1.6 ± 0.2
same,Mean scores of the presence of induration on the skin of animals at the area of induction of psoriasis,"IMI + 3 mg/kg, D9",2.6 ± 0.2
same,Mean scores of the presence of peeling on the skin of animals at the area of induction of psoriasis,"IMI + 3 mg/kg, D9",2.5 ± 0.2
same,Mean scores of the presence of erythema on the skin of animals at the area of induction of psoriasis,"IMI + 3 mg/kg, D10",1.4 ± 0.2
same,Mean scores of the presence of induration on the skin of animals at the area of induction of psoriasis,"IMI + 3 mg/kg, D10",2.1 ± 0.1
same,Mean scores of the presence of peeling on the skin of animals at the area of induction of psoriasis,"IMI + 3 mg/kg, D10",2.0 ± 0.2
same,Mean scores of the presence of erythema on the skin of animals at the area of induction of psoriasis,"IMI + 3 mg/kg, D11",1.0 ± 0.0
same,Mean scores of the presence of induration on the skin of animals at the area of induction of psoriasis,"IMI + 3 mg/kg, D11",1.4 ± 0.2
same,Mean scores of the presence of peeling on the skin of animals at the area of induction of psoriasis,"IMI + 3 mg/kg, D11",1.6 ± 0.2
same,Mean scores of the presence of erythema on the skin of animals at the area of induction of psoriasis,"IMI + 3 mg/kg, D12",0.8 ± 0.2
same,Mean scores of the presence of induration on the skin of animals at the area of induction of psoriasis,"IMI + 3 mg/kg, D12",1.4 ± 0.2
same,Mean scores of the presence of peeling on the skin of animals at the area of induction of psoriasis,"IMI + 3 mg/kg, D12",1.4 ± 0.2
same,Mean scores of the presence of erythema on the skin of animals at the area of induction of psoriasis,"IMI + 3 mg/kg, D13",0.3 ± 0.2
same,Mean scores of the presence of induration on the skin of animals at the area of induction of psoriasis,"IMI + 3 mg/kg, D13",0.6 ± 0.2
same,Mean scores of the presence of peeling on the skin of animals at the area of induction of psoriasis,"IMI + 3 mg/kg, D13",0.9 ± 0.1
same,Mean scores of the presence of erythema on the skin of animals at the area of induction of psoriasis,"IMI + 3 mg/kg, D14",0.3 ± 0.2
same,Mean scores of the presence of induration on the skin of animals at the area of induction of psoriasis,"IMI + 3 mg/kg, D14",0.3 ± 0.2
same,Mean scores of the presence of peeling on the skin of animals at the area of induction of psoriasis,"IMI + 3 mg/kg, D14",0.3 ± 0.2
